In publication PMC11989239, “Structure–Property Relationships in Novel Series of Photoswitchable Local Anesthetic Ethercaine Derivatives: Emphasis on Biological and Photophysical Properties” (International Journal of Molecular Sciences, 2025):
Structures can show the parent of a compound that is named as a salt.

Legend:
[1] = Z-E isomerization half-life by UV/Vis spectrophotometry after 365 nm irradiation; type: physicochemical; conditions: for τ1/2 (DMSO), Z-E isomerization half-life: RT, after 365 nm 5 min; for τ1/2 (Aqueous Kolliphor ELP), Z-E isomerization half-life: aqueous 4% Kolliphor ELP solution
Protocol: As one of the main physicochemical properties of photopharmacological agents, the Z-E half-life was investigated, which determines the stability of the Z-isomer. The Z-E half-lifes were measured using UV/Vis spectrophotometry, converting the compound to the Z-isomer by irradiating with UV light and observing the change in absorption intensity due to reverse Z-E relaxation.
Z-E isomerization half-life was determined using UV/Vis spectroscopy. Solutions were prepared and kept in the dark at RT before the experiment. First, the spectrum in the dark was registered ( PSSdark) , which corresponds to the photostationary state (PSS) with E-isomer predominance. Then, the cuvette with the solution was irradiated with UV light (λ = 365 nm) for 5 min to give the PSS with Z-isomer predominance. The corresponding spectrum was registered ( PSS365nm) . During the subsequent isomerization, the kinetics of changes in the absorption value were recorded at the wavelength of the absorption maximum corresponding to the E-isomer ( λmax(E)) . Then, lnAt/A0 values were calculated using the Equation (1):(1) lnAt/A0=lnAbsPSS(dark)−Abstime/AbsPSS(dark)−AbsPSS(365nm), where AbsPSS(dark) , AbsPSS(365nm), and Abstime are absorbance values at λmax(E) in the dark at the beginning of the experiment, after UV light (λ = 365 nm) irradiation, and at different time points from 0 to 60 min, respectively. Then, a graph was plotted depending on lnAt/A0 values from time, the trend line was calculated, and a first-order rate constant (k) for the thermal back Z-E isomerization reaction was obtained as the slope of the trend line.
For a first-order reaction, half-life t1/2 can be calculated using the Equation (2):(2) t1/2=ln2/k

rabbit eye cornea = assay: Surface anesthesia on the rabbit cornea, Regnier method (Regnier index); type: in vivo; conditions: for Local Anesthetic Activity (Regnier Index, Min—13, Max—1300) In the Dark / Local Anesthetic Activity (Regnier Index, Min—13, Max—1300) Under Irradiation (λ = 365 nm): 1% solution, 0.2 mL instilled, mean ± SD; for Local Anesthetic Activity (Regnier Index, Min—13, Max—1300) In the Dark: in the dark (E-form predominance); for Local Anesthetic Activity (Regnier Index, Min—13, Max—1300) Under Irradiation (λ = 365 nm): solution irradiated with UV 365 nm (Z-form predominance)
Protocol: Thus, the main biological property investigated in this work was the local anesthetic activity of the new derivatives in the dark (with a predominance of the E-form) and under irradiation (with a predominance of the Z-form). The evaluation of local anesthetic activity was conducted on the rabbit cornea using the Regnier method. […] RI values in darkness (451 ± 40) and under UV light irradiation (469 ± 37) for a 2% solution of lidocaine, used as a reference drug, were obtained previously and are independent of light exposure. A 4% aqueous solution of Kolliphor® ELP, used for solubilizing ethercaine and its derivatives and lacking intrinsic local anesthetic activity, was employed as a negative control. In vitro cytotoxicity studies were conducted to initially assess the safety of the compounds.
Non-anesthetized, mature male rabbits of a Soviet chinchilla breed weighing 2–3 kg, obtained from the KrolInfo farm (Orekhovo-Zuyevo, Russia), were used in this study. Animals were kept under standard conditions (humidity 50–60%, temperature 19–22 °C). A 12-h lighting cycle was maintained. Each animal was kept in a separate cage. Animals had ad libitum access to standard extruded feed “CHARA” (CJSC “Assortiment-Agro”, Turakovo Village, Moscow region, Russia) and clean drinking water. Water treatment was performed using a “7 TECHNOCOM” block modular system (LLC “7 TECH”, Moscow, Russia). For in vivo, surface anesthesia measurements, an in-house-made anesthesiometer with a fixed length of a nylon filament (l = 1.0 cm, d = 0.125 mm) was used. Statistical analysis was performed, and figures were plotted using the Python programming language’s standard functions and a Matplotlib package (Version 3.8) for Python. All biological data conformed to a normal distribution (Shapiro–Wilk’s W test, p > 0.05). All data are expressed as the mean ± standard deviation.
For determination of the rabbit eye cornea’s sensitivity using the surface anesthesia method, 12 rabbits with a basic sensitivity threshold (sensitivity threshold of the eye cornea to tactile impact of the anesthesiometer) of 1–2 touches were selected. They were used in experiments repeatedly with an interval of at least 5 days between the experiments. Each eye was considered as a separate experimental point. Three animals were used in each of the experimental groups (n = 6). Two animals (n = 4) were used in each of the negative control groups and in each of experimental groups with UV irradiation due to the expected lack of the effect and to minimize the number of animals in the experiment. Animals were randomly divided into groups. Before an experiment, the animals were immobilized, leaving the head free. Before each experiment, the animals’ eyelashes were cut out, and the basic threshold of sensitivity of the eye cornea to tactile contact was determined using an anesthesiometer.
The irradiation modes were described earlier. Experiments with animals were carried out in a darkened room with a 50W LED light source (λ = 625 nm), which lies outside the absorption bands of the UV/Vis spectrum of the test compound. Before the experiments, solutions of test compounds were irradiated for 5 min with UV light (λ = 365 nm, LED flashlight, 0.5 W).
The adaptation of a model of surface anesthesia on the rabbit’s cornea using the Regnier method for the study of light-controlled local anesthetics was described earlier. The test solution (0.2 mL) of the required concentration (2% for the lidocaine or 1% for the ethercaine and its derivatives) was instilled into each conjunctival sac. After that, the sensitivity threshold of the eye cornea to tactile impact was determined. The first determination was performed at the 8th minute of the experiment and then at the 10th, 12th, 15th, 20th, 25th, 30th, 35th, 40th, 45th, 50th, 55th, and 60th min (13 values overall). […]

[2] = In vitro cytotoxicity, MTT test, 24 h incubation; type: cell-based, human; conditions: human, dermal fibroblast cells (DF2), DF2 fibroblasts
Protocol: (§1) The culture of dermal fibroblast cells (DF2) was obtained from the collection of the Institute of Cytology of the Russian Academy of Sciences (Saint Petersburg, Russia). The cells were cultured in plastic vials with a cell growth surface of 25 cm^2 (Costar, Richmond, VA, USA) on DMEM/F12 medium with the addition of L-glutamine and 10% fetal bovine serum (FBS) (PanEco, Moscow, Russia). The cells were cultured at 37 °C in a humid atmosphere with a content of 5% CO2 (Binder CO2 incubator, Germany). Cell lines from 3 to 7 passages were used in the work. To conduct experiments to evaluate the cytotoxicity of compounds, cells were sieved into 96-well culture plates at a concentration of 10^5 cells per ml, incubated at 37 °C (humidified atmosphere, 5% carbon dioxide) for 24–28 h. Further, 50 µL of the studied substances was added. The cells were incubated with the compounds for 24 h at 37 °C. Next, the cytotoxic effect of the substances was evaluated by a colorimetric method using an MTT test and visually, using an inverted microscope. The criterion for evaluating the specific activity of the compound was the value of IC50, the concentration at which 50% death of culture cells was noted.

[3] = system: human dermal fibroblasts (DF2); assay: In vitro cytotoxicity, MTT test, 24 h incubation; type: cell-based
Protocol: as §1

Row | τ1/2 (Aqueous Kolliphor ELP column), Z-E isomerization half-life ([1]; value obtained for the solution in water) [h] | SMILES | τ1/2 (DMSO), Z-E isomerization half-life [1] [h] | τ1/2 (Aqueous Kolliphor ELP), Z-E isomerization half-life [1] [h] | Decrease in Regnier index under UV light irradiation (365 nm) versus darkness (rabbit eye cornea; dark vs 365 nm) [fold] | IC50 at 24 h [2] [µM] | Local Anesthetic Activity (Regnier Index, Min—13, Max—1300) In the Dark (rabbit eye cornea) | Local Anesthetic Activity (Regnier Index, Min—13, Max—1300) Under Irradiation (λ = 365 nm) (rabbit eye cornea) | IC50 [3] [µM]
1 | – | c1ccc(/N=N/c2ccc(OCCN3CCOCC3)cc2)cc1 [Compound 1, Ethercaine hydrochloride] | 2.1 | 0.833 | 19 | 210 | – | – | –
2 | – | c1ccc(/N=N/c2ccccc2OCCN2CCOCC2)cc1 [Compound 9a, 2-(2-(N-morpholino)-ethoxy)-azobenzene hydrochloride] | 17.2 | 125 | – | > 1000 | – | – | –
3 | – | c1ccc(/N=N/c2cccc(OCCN3CCOCC3)c2)cc1 [Compound 9b, 3-(2-(N-morpholino)-ethoxy)-azobenzene hydrochloride] | 26.8 | 437 | – | 240 | – | – | –
4 | 3.5 | CN1CCN(CCOc2ccc(/N=N/c3ccccc3)cc2)CC1 [Compound 14, 4-(2-(4-Methyl-1-Piperazino)-Ethoxy)-Azobenzene Dihydrochloride] | 18.6 | – | – | 60 | – | – | –
5 | – | CCN(CC)CCOc1ccc(N=Nc2ccccc2)cc1.Cl [Compound 16, 4-(2-(N,N-Diethylamino)Ethoxy)Azobenzene Hydrochloride] | 15.6 | 6.0 | – | 90 | – | – | –
6 | – | Cl.Fc1cc(OCCN2CCOCC2)ccc1N=Nc1ccccc1 [Compound 20a, 2-fluoro-4-(2-(N-morpholino)-ethoxy)-azobenzene hydrochloride] | 7.8 | 2.5 | – | – | 509 ± 34 (n = 6) | 64 ± 15 (n = 4) | 190
7 | – | Cl.Fc1cc(OCCN2CCOCC2)cc(F)c1N=Nc1ccccc1 [Compound 20b, 2,6-difluoro-4-(2-(N-morpholino)-ethoxy)-azobenzene hydrochloride] | 456 | 1.9 | – | – | 538 ± 37 (n = 6) | 58 ± 8 (n = 4) | 180
8 | – | Cl.Fc1ccccc1N=Nc1ccc(OCCN2CCOCC2)cc1 [Compound 20c, 2′-fluoro-4-(2-(N-morpholino)-ethoxy)-azobenzene hydrochloride] | 3.6 | 0.4 | – | – | 590 ± 24 (n = 6) | 70 ± 7 (n = 4) | 190
9 | – | Cl.Fc1ccccc1N=Nc1ccc(OCCN2CCOCC2)cc1F [Compound 20d, 2,2′-difluoro-4-(2-(N-morpholino)-ethoxy)-azobenzene hydrochloride] | 8.1 | 2.3 | – | – | 419 ± 57 (n = 6) | 84 ± 8 (n = 4) | 190
10 | – | Cl.Fc1ccccc1N=Nc1c(F)cc(OCCN2CCOCC2)cc1F [Compound 20e, 2,2′,6-trifluoro-4-(2-(N-morpholino)-ethoxy)-azobenzene hydrochloride] | 703 | 60 | – | – | 395 ± 72 (n = 6) | 59 ± 18 (n = 4) | 190
11 | – | Cl.Fc1cccc(F)c1N=Nc1ccc(OCCN2CCOCC2)cc1 [Compound 20f, 2′,6′-difluoro-4-(2-(N-morpholino)-ethoxy)-azobenzene hydrochloride] | 24 | 1.0 | – | – | 570 ± 87 (n = 6) | 76 ± 19 (n = 4) | 210
12 | – | Cl.Fc1cc(OCCN2CCOCC2)ccc1N=Nc1c(F)cccc1F [Compound 20g, 2,2′,6′-trifluoro-4-(2-(N-morpholino)-ethoxy)-azobenzene hydrochloride] | 137 | 5.0 | – | – | 437 ± 37 (n = 6) | 45 ± 9 (n = 4) | 180
13 | – | Cl.Fc1cccc(F)c1N=Nc1c(F)cc(OCCN2CCOCC2)cc1F [Compound 20h, 2,2′,6,6′-tetrafluoro-4-(2-(N-morpholino)-ethoxy)-azobenzene hydrochloride] | 1190 | 281 | – | – | 353 ± 10 (n = 6) | 35 ± 7 (n = 4) | 440
14 | – | Cc1cnc(/N=N/c2ccc(OCCN3CCOCC3)cc2)s1 [Compound 25b, 2-(4-(2-(N-morpholino)-ethoxy)-phenylazo)-5-methylthiazole hydrochloride] | 0.083 | 0.067 | – | 440 | – | – | –
